Common to all, as to assay: NCI anticancer screen, dose series, 48 h
The test system of assay [1] is HOP-62 NSCLC.
The subject of assay [2] is SW-620 colon.
In assay [3] the test system is MDA-MB-435.
In assay [4] the test system is OVCAR-3 ovarian.
Assay [5] concerns MOLT-4 leukemia.
For assay [6], the system named is SK-MEL-2 melanoma.
Assay [7] deals with HCT-116 colon.
In assay [8] the test system is RXF 393 renal.
Assay [9] concerns T-47D breast.
Assay [10] deals with MALME-3M melanoma.

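Following 48 hours of exposure in 96-well plates, responses at five concentrations were used to interpolate endpoints linearly. GI50 is the concentration that inhibits growth by half. Definition used: TGI = concentration required for complete inhibition of growth.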

Consider `CCOc1cc2c(cc1O)C(N)C[C@@H]1[C@@H]2CC[C@]2(C)[C@@H](O)CC[C@@H]12` (stereo partly specified), for which the TGI was > 100 µM in assay [1]; > 100 µM in [2]; 52.4 µM in [3]; > 100 µM in assay [4]; > 100 µM in [5]; > 100 µM in assay [6]. Moreover, the TGI in assay [7], in [8] and in assay [9] was > 100 µM throughout. Also, the GI50 was 16.2 µM in [3], 44.9 µM in [4] and 39.7 µM in [7].
As for `CSCCCNC(=O)[C@H](CSC)NC(=O)c1csc(CCNC(=O)[C@@H](NSc2ccccc2[N+](=O)[O-])C(C)O)n1` (stereo partly specified), the TGI in assay [1], in assay [2], in [3], in assay [4], in assay [5] and in assay [6] was > 100 µM each time. Further, the TGI in assay [7], in assay [8] and in assay [10] was > 100 µM each time.
On to `COc1ccc(C2=NC(c3ccc(Cl)cc3)C(c3ccc(Cl)cc3)N2C(=O)N2CCNC(=O)C2)c(OC(C)C)c1` (stereo unspecified), for which the GI50 in assay [1] is 1.9 µM; in assay [2], 2.41 µM; in assay [3] it was 1.92 µM; in [4] it was 1.71 µM; in assay [5], 3.39 µM; in assay [6], 2.08 µM. For the same compound, the GI50 is 1.81 µM in [7], 3.6 µM in assay [8] and 3.67 µM in [9]. Also, the TGI is 3.38 µM in [1]; 6.12 µM in assay [2]; 3.63 µM in assay [3]; 3.13 µM in assay [4]; > 10 µM in assay [5]; 4.15 µM in assay [6]. Also, the results for the TGI in [7], in assay [8] and in [9] were 3.2 µM, 6.84 µM and > 10 µM, respectively.
For the compound `CCCCC[C@H]1CCCCCCCCCC(=O)OC2C(O[C@@H]3OC(C)[C@H](OC(=O)[C@@H](C)CC)C(O[C@@H]4OC(C)[C@H](O)C(O)[C@@H]4O)[C@@H]3OC(=O)[C@H](C)CC)[C@H](OC3C(O)[C@@H](O)C(C)O[C@H]3O1)OC(CO)[C@H]2O` (stereo partly specified), the TGI in assay [1] is 32.8 µM; in [2], 30.9 µM; in [4], 32 µM; in assay [5], 35.4 µM; in [6], 30.5 µM; in [7] it was 29.7 µM. Further, the TGI stood at 28.8 µM in assay [10] and 33.3 µM in [9].
As for `CC(C)(C)[Si](C)(C)OC[C@H](/C=C\CCCC(=O)O)NC1(c2ccccc2)c2ccccc2-c2ccccc21`, the TGI in assay [1] was 42.3 µM; in assay [2], > 100 µM; in assay [3], 39.3 µM; in [4] it was 36.1 µM; in assay [5] it was 33.9 µM; in assay [6] it was 26.7 µM. Further, the TGI is 44.8 µM in [7], 25 µM in assay [8] and > 100 µM in assay [9].
Turning to `COc1ccc(CNc2nc3ccccc3nc2C(=O)O)cc1`, the TGI in assay [1], in assay [2], in assay [3], in [4], in [6] and in assay [7] was > 100 µM in each case. The TGI in [8] and in [9] was > 100 µM in each case.
Consider `O=C(Cc1ccccc1)NN1C(=O)/C(=C\c2ccccc2O)SC1=Nc1ccccc1`, for which the TGI in [1], in assay [2], in assay [3], in assay [4], in assay [5] and in assay [6] was > 100 µM throughout. Moreover, the TGI in assay [7], in assay [8] and in assay [9] was > 100 µM each time.
`Cc1ccc(S(=O)(=O)Nn2c(O)c(C#N)c(-c3ccc([N+](=O)[O-])cc3)c(C#N)c2=O)cc1`: the TGI in assay [1], in assay [2], in assay [3], in assay [5], in assay [6] and in assay [7] was > 100 µM in each case. Also, the TGI in assay [8] and in [10] was > 100 µM in each case.
In the case of `COC(=O)c1cc(/C=C\c2cc(OC)ccc2OC)ccc1OC`, the TGI in assay [1] was 77.1 µM; in assay [2] it was > 100 µM; in [3] it was 61.4 µM; in assay [4], 65.8 µM; in [5], 41.7 µM; in [6], 74.2 µM. Besides, the results for the TGI in assay [7] and in assay [9] were > 100 µM and 52.1 µM, respectively.
Take `CC(C)(C)C1=C(Br)C(OC(=O)C(F)(F)F)(C(C)(C)C)OP1(=O)c1ccccc1` (stereo unspecified): the TGI in [1] was 76.8 µM; in assay [3], > 100 µM; in assay [4], > 100 µM; in assay [6], > 100 µM; in [7], > 100 µM; in assay [10], > 100 µM. Besides, the TGI in [9] was > 100 µM.
As for `CC/C(=C\c1ccc(OC)cc1)c1ccc(OC)cc1`, the TGI in [1], in assay [2], in assay [3], in assay [4], in [5] and in assay [6] was > 100 µM throughout. The TGI in [7], in assay [8] and in [10] was > 100 µM throughout.
`C(#Cc1ccccc1)SC1=C(c2ccccc2)S/C(=C(\SC#Cc2ccccc2)c2ccccc2)S1`: the TGI in [1], in [2], in [3], in assay [4], in [5] and in [7] was > 100 µM each time. In assay [9], the TGI was > 100 µM.
For `COC(=O)c1ccc(NCC2=C(Br)C(=O)C=CC2=O)cc1Cl`, the TGI in assay [2] is 30.8 µM; in [3] it was 38.1 µM; in assay [4] it was 26.8 µM; in [5], > 100 µM; in assay [6] it was 52.6 µM; in assay [7], 31.9 µM. Moreover, the TGI in assay [10] was found to be 28.4 µM; in assay [9], 38.6 µM.
For `CC(C)C(NC(=O)C(Cc1ccccc1)NC(=O)[C@H]1CCC[C@H]1NC(=O)C(Cc1ccc(OC(C)(C)C)cc1)NC(=O)OC(C)(C)C)C(N)=O` (stereo partly specified), the TGI in assay [1] was 32.5 µM; in assay [2], 51.3 µM; in [3] it was 34.3 µM; in assay [4], 69.3 µM; in assay [5], 46.5 µM; in [6] it was 41.6 µM. Besides, the values for the TGI in assay [7], in [8] and in [9] were 32.1 µM, > 100 µM and 46.9 µM, respectively.
Take `CCOC(=O)C(C/C=C/CO)N(C)C(=O)OC(C)(C)C` (stereo unspecified): the TGI in assay [1], in assay [2], in assay [4], in [5], in assay [6] and in [7] was > 100 µM each time. Besides, the TGI in assay [8] and in assay [9] was > 100 µM each time.
With `Cc1ccccc1NC(=O)Cc1csc(N=Nc2c(O)[nH]c3ccccc23)n1`, the TGI in assay [2] is > 1 µM; in [3] it was > 1 µM; in assay [5] it was > 100 µM; in assay [6] it was > 100 µM; in assay [7], > 100 µM; in assay [8], 69.5 µM. The TGI in assay [10] is > 100 µM.
For `CC(=O)OCC1OC(n2c(-c3ccccc3)c(N=Nc3ccc(C)cc3)c(C)c(C#N)c2=S)C(OC(C)=O)C(OC(C)=O)C1OC(C)=O` (stereo unspecified), the TGI in assay [1] was 50.1 µM; in [2], 11.4 µM; in [3], 36.6 µM; in [4], 64.7 µM; in assay [5], 55.2 µM; in assay [6], 40.9 µM. In addition, the TGI in [7] is 15.4 µM; in assay [8] it was 50.7 µM; in assay [9], > 100 µM.
Consider `CC1(C)CC(=O)C2=C(C1)OC1(CC2c2ccc(Cl)cc2)CC(c2ccc(Cl)cc2)C2=C(CC(C)(C)CC2=O)O1` (stereo unspecified), for which the TGI came out at 34.2 µM in [1]; 61.2 µM in assay [2]; 33.7 µM in assay [3]; 23.5 µM in [4]; 13.6 µM in [5]; 43.8 µM in assay [6]. In addition, the TGI was > 48.9 µM in [7], 94.3 µM in assay [8] and 30.1 µM in assay [10].
`COc1ccc(-n2cnc3c(NC(Cc4ccccc4)C(=O)O)ncnc32)cc1` (stereo unspecified): the TGI in assay [1], in assay [2], in [3], in assay [4], in assay [6] and in assay [7] was > 100 µM each time. Moreover, the TGI in [9] was > 100 µM.
On to `CN1CCC2(CC1)C(=NC1CCCCC1)NC(=O)N2c1ccccc1`, for which the TGI in assay [1], in assay [2], in assay [5], in assay [7], in assay [8] and in [10] was > 100 µM in each case. The TGI in assay [9] was > 100 µM.
In the case of `C=C(C)[C@@H]1CC[C@]2(CO)CC[C@]3(C)[C@H](CC[C@@H]4[C@@]5(C)CC[C@H](NCO)C(C)(C)[C@@H]5CC[C@]43C)[C@@H]12`, the GI50 was 0.862 µM in assay [1]; 0.948 µM in [2]; 0.896 µM in assay [3]; 0.88 µM in assay [4]; 1 µM in assay [5]; 0.961 µM in assay [6]. In addition, the GI50 is 0.842 µM in assay [8] and 0.792 µM in [10]. In addition, the TGI in assay [1] came out at 1.74 µM; in [2] it was 1.96 µM; in assay [3] it was 1.78 µM; in assay [4], 1.61 µM; in assay [5], 2.56 µM; in assay [6], 1.83 µM. In addition, the TGI in assay [8] was determined as 1.57 µM; in assay [10] it was 1.53 µM.
As for `COCCN1C(=O)C2c3[nH]c4ccccc4c3C3CCC(C(C)(C)C)CC3C2C1=O` (stereo unspecified), the TGI in [1] is 37.4 µM; in assay [2] it was 35.5 µM; in assay [3], 36.9 µM; in assay [4] it was 33.8 µM; in [5] it was > 10 µM; in assay [7] it was 29.9 µM. Moreover, the TGI came out at 43.1 µM in assay [8] and 38.5 µM in assay [9].
For the compound `CCOC(=O)C(C)N1C(=O)c2ccccc2S1(=O)=O` (stereo unspecified), the TGI in [1], in [2], in [4], in [5], in [6] and in [7] was > 100 µM throughout. Further, the TGI in assay [8] and in [10] was > 100 µM in each case. For the same compound, the GI50 in [8] was > 100 µM.
With `S=c1nc[nH]c2c1ncn2C1CCCO1` (stereo unspecified), the TGI in assay [1], in assay [2], in assay [4], in assay [5], in assay [6] and in [7] was > 100 µM each time. Moreover, the TGI in assay [8] and in assay [10] was > 100 µM in each case.
Take `NN/C(=N\S(=O)(=O)c1ccc(S(=O)(=O)c2ccccc2)s1)Nc1ccc(Cl)cc1`: the TGI in assay [1] was > 100 µM; in assay [2] it was > 100 µM; in [4], 72.2 µM; in assay [5] it was 41.2 µM; in assay [6], 53.8 µM; in [7], 32.5 µM. Also, the values for the TGI in assay [8] and in assay [9] were 47.6 µM and 59.3 µM, respectively.
On to `C=C(C)[C@@H]1CC[C@]2(C(=O)NC(C)=O)CC[C@]3(C)[C@H](CC[C@@H]4[C@@]5(C)CCCNC(C)(C)[C@@H]5CC[C@]43C)[C@@H]12`, for which the GI50 is 1.53 µM in assay [2]; 1.55 µM in assay [3]; 1.59 µM in assay [4]; 1.4 µM in assay [5]; 1.92 µM in [6]; 1.76 µM in [8]. In assay [10], the GI50 was 1.34 µM. The TGI was 3.07 µM in [2]; 3.11 µM in assay [3]; 3.04 µM in assay [4]; 3.86 µM in assay [5]; 3.73 µM in [6]; 3.26 µM in assay [8]. The TGI in [10] was 2.65 µM.
Consider `CN(C)CN(C)c1nc(N(C)C)nc(N(C)CN(C)C)n1`, for which the TGI in [1] was > 100 µM; in assay [2], 57.3 µM; in [4] it was > 100 µM; in [5], 69.5 µM; in assay [6] it was 42.6 µM; in assay [7], > 100 µM. In assay [8], this compound yielded a TGI of 38.9 µM.

The values above are taken from PubChem BioAssay (NCI).
